Measured values reported in patent US5998376A, “Substance P treatment for immunostimulation” (priority 1998, dated 1999).

Experiments:
[1] = test system: lymphocyte subpopulations; assay: Flow cytometric analyses (FACS) of immune organs, JP-8 exposed mice; assay type: in vivo, C57B16 mice
Method: (§1) At 24 hours after the last exposure, the animals were sacrificed and the effects of exposure on the immune system examined. Immune organs (spleen, thymus, blood, lymph nodes and bone marrow) were recovered and analyzed for effects on organ weight, total cell numbers, immune cell populations (by differentials), and lymphocyte subpopulations (by flow cytometry). Assays were also performed to examine the effects of exposure on immune function. […] Similar effects on immune cell subpopulations were also observed in lymph nodes. In the thymus it appeared that the immature CD4^+ CD8^+ cells were differentially lost due to exposure. […] However, these effects are prevented or ameliorated by treatment of the animals with Substance P.
Flow cytometric analyses (FACS): One- and two-color FACS analyses are performed using a Becton-Dickinson FACStar Plus flow cytometer. Cells are stained with the indicated monoclonal antibodies according to standard procedures (Harris et al., id). Cells alone and cells reacted with conjugated isotype control, irrelevant mAbs are used as controls. Data is presented as the percentage of cells staining positive for each individual mAb.

[2] = test system: immune system organs (spleen, lymph nodes and thymus); assay: Organ Weight and Total Cell Recovery, JP-8 exposed mice; assay type: in vivo, C57B16 mice; parameters: Spleen Weight / Thymus Weight: unit not given here
Method: as §1
Organ Weight and Total Cell Recovery: For each of the immune system organs (spleen, lymph nodes and thymus) the wet weight is determined after removal using a microbalance. After processing of the organs into single cell suspensions the cell numbers and viabilities are determined using trypan blue staining. Histochemical differentials are performed at this time. Cell numbers and viabilities are again determined after centrifugation of the cell suspensions through density gradients to obtain mononuclear cells.

[3] = JP-8 dose 1000 + SP or antagonist aerosol
[4] = JP-8 dose 0 + SP or antagonist aerosol
[5] = JP-8 dose 0 + antagonist aerosol

COc1ccccc1CC(=N)N1C[C@@H]2C(=O)CCC(c3ccccc3)(c3ccccc3)[C@@H]2C1 [RP, MRP-67,580, reference compound]
BM CD3, cells staining positive [1, 3]: 12%
BM CD4, cells staining positive [1, 3]: 6%
BM CD8, cells staining positive [1, 3]: 5%
BM CD45, cells staining positive [1, 3]: 42%
BM MAC1, cells staining positive [1, 3]: 10%
LN CD3, cells staining positive [1, 3]: 96%
LN CD4, cells staining positive [1, 3]: 41%
LN CD8, cells staining positive [1, 3]: 29%
LN CD45, cells staining positive [1, 3]: 18%
LN MAC1, cells staining positive [1, 3]: 1%
PBL CD3, cells staining positive [1, 3]: 71%
PBL CD4, cells staining positive [1, 3]: 18%
PBL CD8, cells staining positive [1, 3]: 10%
PBL CD45, cells staining positive [1, 3]: 38%
PBL MAC1, cells staining positive [1, 3]: 9%
Spleen CD3, cells staining positive [1, 3]: 47%
Spleen CD4, cells staining positive [1, 3]: 16%
Spleen CD8, cells staining positive [1, 3]: 5%
Spleen CD45, cells staining positive [1, 3]: 39%
Spleen MAC1, cells staining positive [1, 3]: 1%
Thymus CD3, cells staining positive [1, 3]: 16%
Thymus DN, cells staining positive [1, 3]: 10%
Thymus DP, cells staining positive [1, 3]: 70%
Thymus SP4, cells staining positive [1, 3]: 12%
Thymus SP8, cells staining positive [1, 3]: 8%
BM Cell Number [2, 3]: 27
LN Cell Number [2, 3]: 6.8
Spleen Cell Number [2, 3]: 37
Spleen Weight [2, 3]: 0.10
Thymus Cell Number [2, 3]: 72
Thymus Weight [2, 3]: 0.03

COc1ccccc1CN[C@H]1C2CCN(CC2)[C@H]1C(c1ccccc1)c1ccccc1 [CP, CP-96,345, reference compound]
BM CD3, cells staining positive [1, 4]: 16%
BM CD4, cells staining positive [1, 4]: 9%
BM CD8, cells staining positive [1, 4]: 7%
BM CD45, cells staining positive [1, 4]: 27%
BM MAC1, cells staining positive [1, 4]: 33%
Spleen CD3, cells staining positive [1, 4]: 32%
Spleen CD4, cells staining positive [1, 4]: 21%
Spleen CD8, cells staining positive [1, 4]: 7%
Spleen CD45, cells staining positive [1, 4]: 24%
Spleen MAC1, cells staining positive [1, 4]: 3%
Thymus CD3, cells staining positive [1, 4]: 18%
Thymus DN, cells staining positive [1, 4]: 13%
Thymus DP, cells staining positive [1, 4]: 75%
Thymus SP4, cells staining positive [1, 4]: 12%
Thymus SP8, cells staining positive [1, 4]: 3%
LN CD3, cells staining positive [1, 5]: 49%
LN CD4, cells staining positive [1, 5]: 25%
LN CD8, cells staining positive [1, 5]: 12%
LN CD45, cells staining positive [1, 5]: 15%
LN MAC1, cells staining positive [1, 5]: 1%
PBL CD3, cells staining positive [1, 5]: 72%
PBL CD4, cells staining positive [1, 5]: 29%
PBL CD8, cells staining positive [1, 5]: 13%
PBL CD45, cells staining positive [1, 5]: 12%
PBL MAC1, cells staining positive [1, 5]: 7%
BM CD3, cells staining positive [1, 3]: 14%
BM CD4, cells staining positive [1, 3]: 7%
BM CD8, cells staining positive [1, 3]: 3%
BM CD45, cells staining positive [1, 3]: 41%
BM MAC1, cells staining positive [1, 3]: 26%
LN CD3, cells staining positive [1, 3]: 95%
LN CD4, cells staining positive [1, 3]: 35%
LN CD8, cells staining positive [1, 3]: 23%
PBL CD3, cells staining positive [1, 3]: 50%
PBL CD4, cells staining positive [1, 3]: 20%
PBL CD8, cells staining positive [1, 3]: 15%
PBL CD45, cells staining positive [1, 3]: 27%
PBL MAC1, cells staining positive [1, 3]: 6%
Spleen CD3, cells staining positive [1, 3]: 34%
Spleen CD4, cells staining positive [1, 3]: 16%
Spleen CD8, cells staining positive [1, 3]: 9%
Spleen CD45, cells staining positive [1, 3]: 26%
Spleen MAC1, cells staining positive [1, 3]: 11%
Thymus CD3, cells staining positive [1, 3]: 17%
Thymus DN, cells staining positive [1, 3]: 12%
Thymus DP, cells staining positive [1, 3]: 65%
Thymus SP4, cells staining positive [1, 3]: 17%
Thymus SP8, cells staining positive [1, 3]: 7%
BM Cell Number [2, 4]: 29
LN Cell Number [2, 4]: 9.8
Spleen Cell Number [2, 4]: 16
Spleen Weight [2, 4]: 0.12
Thymus Cell Number [2, 4]: 50
Thymus Weight [2, 4]: 0.12
BM Cell Number [2, 3]: 22
LN Cell Number [2, 3]: 7.1
Spleen Cell Number [2, 3]: 7
Spleen Weight [2, 3]: 0.16
Thymus Cell Number [2, 3]: 75
Thymus Weight [2, 3]: 0.12
